Common to all, as to assay type: binding
Test [1] addresses T1, recombinant P300 bromodomain (Homo sapiens, UniProt Q09472).
T1 construct: recombinant P300 bromodomain obtained from BPS Bioscience, USA; purchased BPS Bioscience, USA
T1 sequence (Q09472 1049-1156 limits assumed): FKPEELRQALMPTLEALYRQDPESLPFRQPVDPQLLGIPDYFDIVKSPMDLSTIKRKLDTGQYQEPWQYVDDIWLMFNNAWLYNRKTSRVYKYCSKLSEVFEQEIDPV
Briefly: P300 TR-FRET displacement assay. The settings on record: dose-response, read-out: IC50 (group A, B, C). The procedure:
The potency of compounds to inhibit P300 enzyme was tested in a TR-FRET displacement assay using recombinant P300 bromodomain obtained from BPS Bioscience, USA. The assay buffer was 50 mM HEPES (pH 7.5), 50 mM NaCl, 0.008% Brij 35, 0.01% BSA, 1 mM TCEP. 50 nM of P300 & 500 nM of Biotinylated ligand was incubated at room temperature for 30 minutes, the reaction was initiated by adding the pre-incubated enzyme ligand mixture to the test compounds. After 60 min incubation, the reaction was stopped by the addition of stop mix containing 1 nM of LANCE Europium-anti-6xHis antibody (Perkin Elmer, USA) and 40 nM of Sure Light Allophycocyanin-Streptavidin (Perkin Elmer, USA). Fluorescence emission of the samples at 665 and 615 nm were measured at an excitation of 340 nm and their ratio was plotted against the compound concentrations to generate dose-response curve.
Selected compounds of the present invention were screened in the above-mentioned assay procedures and IC50 values were determined by fitting the dose-response data to sigmoidal curve fitting equation using Graph pad prism software V7.
(In TR-FRET formats the signal depends on donor and acceptor labels being close together.)

Test [2] addresses T2, recombinant CREBBP bromodomain (Homo sapiens, UniProt Q92793).
T2 construct: recombinant CREBBP bromodomain obtained from BPS Bioscience, USA; purchased BPS Bioscience, USA
Put plainly: CBP TR-FRET displacement assay. The note with it: for inhibition at 10 µM: compound at 10 μM; for IC50: dose-response, read-out: IC50 (group A, B, C). Summed up: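 CREBBP bromodomain (50 nM) preincubated 30 min at room temperature with 500 nM biotinylated ligand in HEPES pH 7.5 buffer with TCEP, then 60 min with compound. Eu-anti-His/APC-streptavidin TR-FRET 665/615 nm ratio read; IC50 from sigmoidal dose-response fit.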

For test [3], the target named is T3, recombinant BRD4 FL bromodomain (Homo sapiens, UniProt O60885).
T3 construct: fused on or other part: 6xHis tag, inferred from detection with Mab ANTI 6HIS-XL665
Briefly: BRD4 FL TR-FRET displacement assay. The note with it: BRD4 FL; for IC50: dose-response, read-out: IC50 (group A, B, C); for inhibition at 10 µM: compound at 10 μM, read-out: % Inhibition (10 μM). The procedure, abridged:
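Recombinant BRD4 FL (10 nM) pre-incubated 30 min at room temperature with 300 nM biotinylated acetyl-histone H4 (K5/8/12/16) in 50 mM HEPES pH 7.5, 50 mM NaCl, 500 μM CHAPS, then added to compounds for 30 min. Stopped with Eu-streptavidin/anti-6His-XL665 in KF; 665/615 nm ratio fitted sigmoidally for IC50.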

Structures are written as SMILES.

T2 sequence (Q92793 1085-1192 limits assumed): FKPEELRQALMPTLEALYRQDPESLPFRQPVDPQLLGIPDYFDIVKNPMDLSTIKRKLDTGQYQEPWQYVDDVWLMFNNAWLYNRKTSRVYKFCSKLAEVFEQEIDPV

For `Cc1cc2c(N3CCN(C)c4cc(-c5cnn(C)c5)ccc43)cccc2[nH]c1=O` [Example 6], the IC50 (usually the midpoint of a concentration-inhibition curve) in test [1] was more than 50000 nM; in test [2] it was more than 10 nM; in test [3], 2010 to 5000 nM. Further, the inhibition (usually the drop in the measured response relative to a control, in per cent) at 10 µM in test [2] was 100%.
Regarding `COc1cc(N2CCN(C)c3cc(-c4cnn(C)c4)c(C#N)cc32)c2cc(C)c(=O)[nH]c2c1` [Example 7], the IC50 was more than 50000 nM in test [1] and less than 50 nM in test [2]. The inhibition at 10 µM in test [2] was 90%; in test [3], 77%.
Turning to `Cc1cc2c(N3CCN(C)c4cc(-c5cnn(C)c5)c(C#N)cc43)cccc2n(C)c1=O` [Example 42], the IC50 in test [1] is 25 to 50 nM; in test [2], less than 50 nM. In addition, the inhibition at 10 µM in test [2] came to 96%; in test [3], 81%.
Regarding `COc1cc(N2CCN(C)c3cc(C(=O)O)c(C#N)cc32)c2cc(C)c(=O)n(C)c2c1` [Example 68, 7-cyano-1-(7-methoxy-1,3-dimethyl-2-oxo-1,2-dihydroquinolin-5-yl)-4-methyl-1,2,3,4-tetrahydroquinoxaline-6-carboxylic acid], the IC50 is 25 to 50 nM in test [1], less than 50 nM in test [2] and 2010 to 5000 nM in test [3].
For the compound `CNC(=O)c1cc2c(cc1C#N)N(c1cc(OC)cc3c1cc(C)c(=O)n3C)CCN2C` [Example 69, 7-cyano-1-(7-methoxy-1,3-dimethyl-2-oxo-1,2-dihydroquinolin-5-yl)-N,4-dimethyl-1,2,3,4-tetrahydroquinoxaline-6-carboxamide], the IC50 in test [1] is less than 25 nM; in test [2], less than 50 nM. Besides, the inhibition at 10 µM in test [3] was found to be 39%.
Take `CN1CCN(c2cccc3c2cc(N)c(=O)n3C)c2cc(C#N)c(-c3cnn(C)c3)cc21` [Example 77, 4-(3-Amino-1-methyl-2-oxo-1,2-dihydroquinolin-5-yl)-1-methyl-7-(1-methyl-1H-pyrazol-4-yl)-1,2,3,4-tetrahydroquinoxaline-6-carbonitrile]: the IC50 was more than 50000 nM in test [1], more than 10 nM in test [2] and 2010 to 5000 nM in test [3].
The matching figures for `COc1cc(N2CCN(C)c3cc(F)c(S(N)(=O)=O)cc32)c2cc(C)c(=O)n(C)c2c1` [Example 86]: 25 to 50 nM, less than 50 nM and 2010 to 5000 nM.
The matching figures for `COc1cc(N2CCN(C)c3ccc(S(N)(=O)=O)cc32)c2cc(C)c(=O)n(C)c2c1` [Example 94]: less than 25 nM, less than 50 nM and 2010 to 5000 nM.
Turning to `Cc1cc2c(N3CCCc4cc(-c5cnn(C)c5)c(C(F)F)cc43)cncc2n(C)c1=O` [Example 180], the IC50 in test [1] is less than 25 nM; in test [2], 51 to 100 nM; in test [3], 2010 to 5000 nM.
As for `COc1cc(N2CCc3cc(-c4cnn(C)c4)c(C(F)F)cc32)c2cc(C)c(=O)n(C)c2c1` [Example 195, 5-(6-(Difluoromethyl)-5-(1-methyl-1H-pyrazol-4-yl)indolin-1-yl)-7-methoxy-1,3-dimethylquinolin-2(1H)-one], the IC50 in test [1] is 25 to 50 nM; in test [2], less than 50 nM.
Consider `CNC(=O)C1CCN(c2cc3c(cc(C)c(=O)n3C)c(N3CCCc4cc(-c5cnn(C)c5)c(C(F)F)cc43)n2)C1` (stereo not shown) [Example 201, 1-(5-(7-(Difluoromethyl)-6-(1-methyl-1H-pyrazol-4-yl)-3,4-dihydroquinolin-1(2H)-yl)-1,3-dimethyl-2-oxo-1,2-dihydro-1,6-naphthyridin-7-yl)-N-methylpyrrolidine-3-carboxamide], for which the figures for the IC50 in test [1] and in test [2] were less than 25 nM and less than 50 nM, respectively.
In the same order, the values of `Cc1cc2c(N3CCCc4cc(-c5cnn(C)c5)c(C(F)F)cc43)nc(N3CC[C@@H](O)C3)cc2n(C)c1=O` [Example 209] are less than 25 nM and less than 50 nM.
The matching figures for `Cc1cc2c(N3CCCc4cc(-c5cnn(C)c5)c(C(F)F)cc43)nc(N3CC[C@H](O)C3)cc2n(C)c1=O` [Example 210]: 25 to 50 nM and less than 50 nM.
The matching figures for `CNC(=O)[C@@H]1CCN(c2cc3c(cc(C)c(=O)n3C)c(N3CCCc4cc(-c5cnn(C)c5)c(C(F)F)cc43)n2)C1` [Example 211]: less than 25 nM and less than 50 nM.
Regarding `CNC(=O)[C@H]1CCN(c2cc3c(cc(C)c(=O)n3C)c(N3CCCc4cc(-c5cnn(C)c5)c(C(F)F)cc43)n2)C1` [Example 212], the IC50 is less than 25 nM in test [1] and less than 50 nM in test [2].
In the same order, the values of `Cc1cc2c(N3CCCc4cc(-c5cnn(C)c5)c(C(F)F)cc43)nc(N3C[C@@H](O)[C@H](O)C3)cc2n(C)c1=O` [Example 215] are less than 25 nM and less than 50 nM.
In the same order, the values of `Cc1cc2c(N3CCCc4cc(-c5cnn(C)c5)c(C(F)F)cc43)nc(N3CC4(COC4)C3)cc2n(C)c1=O` [Example 224] are more than 50000 nM and less than 50 nM.
As to `Cc1cc2c(N3CCCc4cc(-c5cnn(C)c5)c(C(F)F)cc43)nc(N3CCC4(COC4)C3)cc2n(C)c1=O` [Example 225], the IC50 is 25 to 50 nM in test [1] and less than 50 nM in test [2].
The matching figures for `Cc1cc2c(N3CCCc4cc(-c5cnn(C)c5)c(C(F)F)cc43)nc(N3CCOCC3)cc2n(C)c1=O` [Example 234, 5-(7-(Difluoromethyl)-6-(1-methyl-1H-pyrazol-4-yl)-3,4-dihydroquinolin-1(2H)-yl)-1,3-dimethyl-7-morpholino-1,6-naphthyridin-2(1H)-one]: less than 25 nM and less than 50 nM.
Consider `Cc1cc2c(N3CCCc4cc(-c5cnn(C)c5)c(C(F)F)cc43)nc(C3CCOCC3)cc2n(C)c1=O` [Example 242, 5-(7-(Difluoromethyl)-6-(1-methyl-1H-pyrazol-4-yl)-3,4-dihydroquinolin-1(2H)-yl)-1,3-dimethyl-7-(tetrahydro-2H-pyran-4-yl)-1,6-naphthyridin-2(1H)-one], for which the IC50 in test [1] was less than 25 nM; in test [2], less than 50 nM.
